Assay: TGA of the product prepared in example 6
Type: physicochemical
Details: up to 150° C.
Excerpt: The product prepared in example 6 was investigated by TGA.

Cn1nc(C(F)(F)C(F)(F)F)c(C(F)(F)F)c1-n1cc(-c2ccc(Cl)c(C(=O)NC3(C#N)CC3)c2)cn1 [example 6, 2-chloro-N-(1-cyanocyclopropyl)-5-[2′-methyl-5′-(pentafluoroethyl)-4′-(trifluoromethyl)-2′H-1,3′-bipyrazol-4-yl]benzamide]
loss of mass (TGA): no loss of mass

Source: US12522585B2, “Method for preparing 2-chloro-n-(1-cyanocyclopropyl)-5-[2′-methyl-5′-(pentafluoroethyl)-4′-(trifluoromethyl)-2′h-1,3′-bipyrazol-4-yl]benzamide” ([…], priority 2020, dated 2026)
